# Experimental data from patent US20190254299A1, “METHODS OF HANDLING AVOCADOS AND SYSTEM” (AGROFRESH INC., priority 2012, published 2019).
# What was measured:
# Type in all cases: in vivo
# avocados [1] = assay: Skin color rating of avocados, Example 1 (California); design: key: 1 = full green, 3 = half green/half brown, 5 = purple-black
# Description: (§1) Avocado skin color was rated using the following scale: • 1=full green • 2=green with traces of brown • 3=half green and half brown • 4=brown with traces of green • 5=purple-black
# (§2) Avocados were harvested in Oxnard, Calif., USA and packed in cardboard boxes and shipped to Sacramento, Calif, USA. After 2 days of transportation part of the avocados were packed in MAP bags. The appropriate weight of avocados was placed in each bag after harvest and shipment. Bags were placed in RPC (Recycle Plastic Container) carrying devices. Avocados then were stored at room temperature (22° C.).
# (§3) The Test Protocol that was used was as follows. 60 MAP bags were packed. Each hag held approximately 1.7 kg (3.8 lb) of avocados. Three such bags were packed in each RPC. Total weight of avocados in MAP bags was approximately 102 kg. Approximately 51 kg of avocados were placed into RPC identical to those used for the MAP bags. The MAP-packaged avocados were packaged as follows: Nine fruits, approximately 1.7 kg (3.8 lb) were carefully placed into MAP bags, and the bags were sealed by twisting the open side of the bag, folding down the twisted end, and placing a rubber band around the twisted and folded end of the bag.
# (§4) Avocados were harvested with a very high firmness (not possible to measure with FTA Machines (Firmness Texture Analyzer)). The FTA higher limit was 156 N (351 bf). To monitor the ripening process of the avocados, extra fruits were bagged in MAP bags and the firmness was monitored every day, twice a day until the fruits achieve an average firmness of 111 N (25 lbf). All avocados were kept at room temperature (22° C.) until achieving an average firmness of 111 N (251 bf).
# (§5) After achieving an average firmness of 111 N (25 lbf) the avocados were randomly divided into treatment sets as follows:
# (§6) On the same day the avocados achieved 111 N (25 lbf) of average firmness, each treatment set was marked, placed in a hermetical chamber at room temperature (22° C.). All chambers were of equal size and packed the same way. Treatment was for 12 hr. In the chambers for the 3 “MCP” treatment groups, at the beginning of the treatment period, SmartFresh™ SmartTabs™ tablets (AgroFresh, Inc.) were placed in the chamber. The amount of SmartFresh™ SmartTabs™ tablets was chosen to achieve the indicated concentration of 1-methylcyclopropene in the atmosphere of the chamber. The SmartTabs™ tablets were contacted with water in the normal way to release 1-MCP.
# (§7) After the treatment in the chambers, the RPCs were moved into racks at room temperature for storage and observation. Avocados remained in the same bags throughout the packing, treatment in the chamber, and subsequent storage. Evaluation for skin color and pulp firmness was as follows. Day “zero” was the day the avocados were removed from the chamber and placed in storage. Each test result was the average of 12 fruits.
# avocados [2] = assay: Pulp firmness by penetrometer, Example 1 (California)
# Method: (§8) As used herein, the “pulp firmness” of an avocado is measured using a penetrometer (Fruit Test™ FT40 penetrometer, from Wagner Instruments) having a plunger diameter of 8 mm Performing the test for pulp firmness destroys the avocado that is tested. When avocados are said herein to be treated in a certain way (e.g., harvested, shipped, exposed to a cyclopropene compound, etc.) when they have a certain specified pulp firmness, it is meant that, out of a group of avocados that have been harvested and treated as uniformly as reasonably possible, a sample of a relatively small number of avocados is removed and tested for pulp firmness. The large group of avocados is considered to have the pulp firmness that is the average value of the tests performed on the relatively small sample.
# (§9) Pulp firmness was evaluated by peeling open 4 cm^2 of the avocado's peel using a fruit peeler provided with the penetrometer. The penetrometer was mounted on a manual stand with a lever to deliver unifoim force throughout the test. The avocado was placed with the peeled surface beneath the penetrometer tip with probe diameter of 8 mm, and the force required to punch through the pulp was measured. Each fruit was tested in 3 places.
# as §2, §3, §4, §5, §6, §7
# avocados [3] = assay: Skin color on day 8, Example 3; design: key: 1: full green; 2: green with traces of brown; 3: half green and half brown; 4: brown with traces of green; 5: purple-black; conditions: 1000 ppb MCP
# Method: as §1
# Avocados were harvested in Mexico and shipped to Pennsylvania, USA. 48 fruits were tested. When the fruits reached pulp firmness of 71 N (16 lbf), half of the fruits were exposed to atmosphere having 1000 ppb of MCP at 21.1° C. for 12 hours and half were not. Immediately after treatment, fruits were placed in MAP bags. The number of fruits per bag was either 1, 2, 3, 4, or 10. Two MCP-treated fruits were left out of any MAP, and two fruits not exposed to MCP were also left out of any MAP. All fruits were then stored at 21° C. (70° F.). On the eighth day after exposure to atmosphere containing MCP, fruits were tested with the following results. The results shown are the averages for all the fruits tested in each category.
# Avocados were harvested and shipped as in Example 2. Treatment was performed when pulp thinness reached 98 N (22 lbf). 50 fruits were tested. Otherwise the treatment and handling was the same as in Example 2. Results (average of all fruits tested in each category) were as follows: […]
# avocados [4] = assay: Skin color rating, ethylene-treated fruit, Example 6; design: key to Skin Color ratings: 1 = full green to 5 = purple-black; conditions: for Skin Color ratings: ethylene-treated, 900 ppb MCP
# Description: as §1
# (§10) Avocados were harvested, handled, and tested as in Example 1. Fruits were placed into MAP bags or else into “Poly bags” (plastic bags having more than 10 holes per bag, with each hole larger than 1 cm in diameter).
# (§11) Three fruits (approximately 1.8 kg of fruit) were placed in each bag. After placement into bags, fruit was exposed to ethylene (200 ppm for 24 hours at 22° C.). Then, the fruit was exposed to 1-MCP (900 ppb for 15 hours at 22° C.).
# avocados [5] = assay: Pulp firmness, ethylene-treated fruit, Example 6; conditions: for Pulp Firmness Difference from the Control Sample: ethylene-treated, 900 ppb MCP, control Poly bag, 0 MCP
# Method: as §8, §9, §10, §11
# avocados [6] = assay: RipeLock applications, Example 7; conditions: FIG. 5, firmness
# Description: Avocados are harvested, handled, and tested as in previous examples. Control samples have no bag and no SmartFresh (1-methylcyclopropene or 1-MCP) application. SmartFresh samples have no bags hut with 600 ppb SmartFresh (1-methylcyclopropene or 1-MCP) application. MAP samples use the 31b MAP bags but no SmartFresh (1-methylcyclopropene or 1-MCP) application. RipeLock 300 samples have the 31b MAP bags with 300 ppb SmartFresh (1-methylcyclopropene or 1-MCP) application. RipeLock 600 samples have the 31b MAP bags with 600 ppb SmartFresh (1-methylcyclopropene or 1-MCP) application. RipeLock 900 samples have the 31b MAP bags with 900 ppb SmartFresh (1-methylcyclopropene or 1-MCP) application. Average fruit in each sample is about 3.81b.
# Oxygen (O2) concentrations of samples tested are shown in FIG. 1, and carbon dioxide (CO2) concentrations of samples tested are shown in FIG. 2.
# avocados [7] = assay: Additional RipeLock applications, Example 8; conditions: seven days at 22° C.
# Description: Avocados are harvested, handled, and tested as in previous examples. Control samples have no bag and no SmartFresh (1-methylcyclopropene or 1-MCP) application. SmartFresh samples have no bags but with 500 ppb SmartFresh (1-methylcyclopropene or 1-MCP) application. MAP samples use the 31b MAP bags but no SmartFresh (1-methylcyclopropene or 1-MCP) application. RipeLock samples have the 3 lb MAP bags with various concentrations of SmartFresh (1-methylcyclopropene or 1-MCP) applications, including 10 ppb, 50 ppb, 100 ppb, 500 ppb, 1500 ppb, 3000 ppb, and 4500 ppb. Average fruit in each sample is about 3.8 lb. Ethylene is treated after packing at 200 ppm for twenty-four hours. Evaluations are performed seven days at 22° C. after SmartFresh (1-methylcyclopropene or 1-MCP) applications.
# Data of pulp firmness of avocado tested are shown in FIG. 6 (with ethylene) and FIG. 7 (without ethylene).
compound,measurement,setting,value
"CC1=CC1 [MCP, 1-methylcyclopropene]",Skin Color ratings,"avocados [1]; MAP bag, 300 ppb MCP, day 0",1.7
same,Skin Color ratings,"avocados [1]; MAP bag, 300 ppb MCP, day 1",2.9
same,Skin Color ratings,"avocados [1]; MAP bag, 300 ppb MCP, day 2",2.3
same,Skin Color ratings,"avocados [1]; MAP bag, 300 ppb MCP, day 3",2.8
same,Skin Color ratings,"avocados [1]; MAP bag, 300 ppb MCP, day 4",2.3
same,Skin Color ratings,"avocados [1]; MAP bag, 600 ppb MCP, day 0",1.7
same,Skin Color ratings,"avocados [1]; MAP bag, 600 ppb MCP, day 1",2.3
same,Skin Color ratings,"avocados [1]; MAP bag, 600 ppb MCP, day 2",2.3
same,Skin Color ratings,"avocados [1]; MAP bag, 600 ppb MCP, day 3",2.2
same,Skin Color ratings,"avocados [1]; MAP bag, 600 ppb MCP, day 4",2.1
same,Skin Color ratings,"avocados [1]; MAP bag, 900 ppb MCP, day 0",1.6
same,Skin Color ratings,"avocados [1]; MAP bag, 900 ppb MCP, day 1",2.3
same,Skin Color ratings,"avocados [1]; MAP bag, 900 ppb MCP, day 2",2.3
same,Skin Color ratings,"avocados [1]; MAP bag, 900 ppb MCP, day 3",2.3
same,Skin Color ratings,"avocados [1]; MAP bag, 900 ppb MCP, day 4",2.4
same,Skin Color ratings,"avocados [1]; No Bag, 600 ppb MCP, day 0",2.6
same,Skin Color ratings,"avocados [1]; No Bag, 600 ppb MCP, day 1",3.0
same,Skin Color ratings,"avocados [1]; No Bag, 600 ppb MCP, day 2",2.8
same,Skin Color ratings,"avocados [1]; No Bag, 600 ppb MCP, day 3",3.8
same,Skin Color ratings,"avocados [1]; No Bag, 600 ppb MCP, day 4",3.4
same,Pulp Firmness - Difference from Untreated Control,"avocados [2]; MAP bag, 300 ppb MCP, day 0",90 Ns
same,Pulp Firmness - Difference from Untreated Control,"avocados [2]; MAP bag, 300 ppb MCP, day 1",22 Ns
same,Pulp Firmness - Difference from Untreated Control,"avocados [2]; MAP bag, 300 ppb MCP, day 2",36 Ns
same,Pulp Firmness - Difference from Untreated Control,"avocados [2]; MAP bag, 300 ppb MCP, day 3",41.3 Ns
same,Pulp Firmness - Difference from Untreated Control,"avocados [2]; MAP bag, 300 ppb MCP, day 4",33 Ns
same,Pulp Firmness - Difference from Untreated Control,"avocados [2]; MAP bag, 600 ppb MCP, day 0",84 Ns
same,Pulp Firmness - Difference from Untreated Control,"avocados [2]; MAP bag, 600 ppb MCP, day 1",46 Ns
same,Pulp Firmness - Difference from Untreated Control,"avocados [2]; MAP bag, 600 ppb MCP, day 2",39 Ns
same,Pulp Firmness - Difference from Untreated Control,"avocados [2]; MAP bag, 600 ppb MCP, day 3",59.3 Ns
same,Pulp Firmness - Difference from Untreated Control,"avocados [2]; MAP bag, 600 ppb MCP, day 4",40 Ns
same,Pulp Firmness - Difference from Untreated Control,"avocados [2]; MAP bag, 900 ppb MCP, day 0",93 Ns
same,Pulp Firmness - Difference from Untreated Control,"avocados [2]; MAP bag, 900 ppb MCP, day 1",61 Ns
same,Pulp Firmness - Difference from Untreated Control,"avocados [2]; MAP bag, 900 ppb MCP, day 2",52 Ns
same,Pulp Firmness - Difference from Untreated Control,"avocados [2]; MAP bag, 900 ppb MCP, day 3",49.3 Ns
same,Pulp Firmness - Difference from Untreated Control,"avocados [2]; MAP bag, 900 ppb MCP, day 4",46 Ns
same,improvement over the untreated control (pulp firmness),"avocados [2]; MCP alone at 600 ppb, day 3",4 lbf
same,Pulp Firmness - Difference from Untreated Control,"avocados [2]; No Bag, 600 ppb MCP, day 0",29 Ns
same,Pulp Firmness - Difference from Untreated Control,"avocados [2]; No Bag, 600 ppb MCP, day 1",14 Ns
same,Pulp Firmness - Difference from Untreated Control,"avocados [2]; No Bag, 600 ppb MCP, day 2",10 Ns
same,Pulp Firmness - Difference from Untreated Control,"avocados [2]; No Bag, 600 ppb MCP, day 3",17.3 Ns
same,Pulp Firmness - Difference from Untreated Control,"avocados [2]; No Bag, 600 ppb MCP, day 4",12 Ns
same,"Skin Color on Day 8, Color Rating",avocados [3]; MAP bag,4.2
same,"Skin Color on Day 8, Color Rating",avocados [3]; no bag,5
same,skin color compared with other treatments,"avocados [4]; MAP bags and 900 ppb of 1-MCP, days 1, 2, and 3",best skin color
same,Skin Color ratings,"avocados [4]; MAP bag, day 0",2.1
same,Skin Color ratings,"avocados [4]; MAP bag, day 1",3.0
same,Skin Color ratings,"avocados [4]; MAP bag, day 2",3.3
same,Skin Color ratings,"avocados [4]; MAP bag, day 3",3.4
same,Skin Color ratings,"avocados [4]; MAP bag, day 4",4.4
same,Skin Color ratings,"avocados [4]; Poly bag, day 0",4.1
same,Skin Color ratings,"avocados [4]; Poly bag, day 1",4.9
same,Skin Color ratings,"avocados [4]; Poly bag, day 2",4.8
same,Skin Color ratings,"avocados [4]; Poly bag, day 3",4.8
same,Skin Color ratings,"avocados [4]; Poly bag, day 4",4.9
same,effect of combining MAP bag and 1-MCP on pulp firmness,"avocados [5]; MAP bags and 900 ppb 1-MCP, days 1-4",synergistic benefit to pulp firmness
same,pulp firmness compared with other treatments,"avocados [5]; MAP bags and 900 ppb of 1-MCP, days 1-4",best pulp firmness
same,Pulp Firmness Difference from the Control Sample,"avocados [5]; MAP bag, day 0",13.8 Ns
same,Pulp Firmness Difference from the Control Sample,"avocados [5]; MAP bag, day 1",30.4 Ns
same,Pulp Firmness Difference from the Control Sample,"avocados [5]; MAP bag, day 2",14.6 Ns
same,Pulp Firmness Difference from the Control Sample,"avocados [5]; MAP bag, day 3",21.4 Ns
same,Pulp Firmness Difference from the Control Sample,"avocados [5]; MAP bag, day 4",14.8 Ns
same,Pulp Firmness Difference from the Control Sample,"avocados [5]; Poly bag, day 0",0.1 Ns
same,Pulp Firmness Difference from the Control Sample,"avocados [5]; Poly bag, day 1",1.1 Ns
same,Pulp Firmness Difference from the Control Sample,"avocados [5]; Poly bag, day 2",0.6 Ns
same,Pulp Firmness Difference from the Control Sample,"avocados [5]; Poly bag, day 3",1.4 Ns
same,Pulp Firmness Difference from the Control Sample,"avocados [5]; Poly bag, day 4",0.1 Ns
same,combined effect of MAP bags and SmartFresh application,avocados [6],synergistic effect
same,firmness and skin color by application rate,avocados [7]; rate of 1500 ppb in MAP bags,best result for both firmness and skin color
same,combined effect of MAP bags and SmartFresh applications,avocados [7]; rates equal or higher than 500 ppb,synergistic effect
